Where two headings read alike, the source gives them in different places.
Assays:
[1] = tested on: purified secondary alcohol dehydrogenase; test: Substrate and electron acceptor specificity of purified yeast secondary alcohol dehydrogenase; format: biochemical, Pichia sp. NRRL Y-11,328; conditions: for Oxidation by the purified yeast enzyme (in words): examined spectrophotometrically
Description: (§1) Large scale cultures of Pichia sp. NRRL Y-11,328 were grown with aeration at 30° C. in a 14-liter New Brunswick f fermentor in a mineral salt medium containing methanol (0.4%, v/v) as the sole carbon source. The cells (200 g., wet weight) were suspended in 50 mm sodium phosphate buffer, pH 7.0, containing 1 mM dithiothreitol (buffer A), and crude extracts were prepared as described previously. To the crude extracts, 18 ml. of protamine sulfate solution [2% solution in 0.1 M tris (hydroxymethyl) aminomethane (tris) base] was added dropwise with continuous stirring. After standing for 30 min., the extracts were centrifuged at 20,000 x g. for 60 min. The supernatant solution was fractioned with solid ammonium sulfate. Extracts were brought to 50% of saturation with respect to ammonium sulfate by addition of 313 g. of the salt per liter of extract. Precipitated proteins was removed by centrifugation, and 137 g. of ammonium sulfate was added per liter of the supernatant liquid to bring it to 70% of saturation. Material precipitating between 50 and 70% of saturation was collected by centrifugation and dissolved in buffer A. This preparation was dialyzed overnight against buffer A, and the dialyzed material was applied to a DEAE-cellulose column (5×40 cm) that had been equilibrated with buffer A. The sample was washed with 200 ml. of buffer A and eluted with 2 liters of buffer A that contained NaCl in a linear gradient running from a concentration of 0 to 0.5 M. Fractions of 15 ml. were collected. Fractions containing secondary alcohol dehydrogenase activity were pooled and were termed DEAE-cellulose eluate. The DEAE-cellulose eluate was concentrated by ammonium sulfate fractionation.
(§2) Secondary alcohol dehydrogenase activity was measured spectrophotometrically at 340 nm with a NAD^+ as an electron acceptor. The reaction mixture, in a total 3.0 ml., contained 50 mM phosphate buffer, pH 8.0, 5μmoles NAD^+, crude extracts, and substrate. The reactions were started by addition of 100 μof 0.1 M substrate and the rate of NAD^+ reduction was measured. Protein concentration was determined by the method of Lowry et al.
The substrate specificity of the purified secondary alcohol dehydrogenase was examined spectrophotometrically.

[2] = tested on: cell suspensions of the strains of C1-utilizers tested; test: Production of methyl ketones from secondary alcohols by cell suspensions of C1-utilizers (strains tested); format: cell-based; conditions: for Rate of oxidation of secondary alcohols to methyl ketones: cell suspensions of C1-utilizers
Description: The substrate specificity for the oxidation of C3 -C6 secondary alcohols by the strains of C1 -utilizers was studied.

[3] = tested on: secondary alcohol dehydrogenase (SADH); test: Substrate specificity and Michaelis constants of purified SADH; format: biochemical, Pseudomonas sp. ATCC 21439
Description: (§3) Secondary alcohol dehydrogenase (SADH) from an obligate methanol utilizer, Pseudomonas sp. ATCC 21439 was purified as follows. […] 0.05 M sodium phosphate buffer, pH 7.0 with 0.5mM dithiothretol (buffer A) and were disrupted sonically (5×1 min.). The crude extract was separated by centrifugation. The crude extract was heat-treated at 50° C. in a water bath for 10 minutes. The resulting precipitate was removed by centrifugation. To the supernatant solution, 25 ml of protamine sulfate solution (2% solution in 0.1 M Tris base) was added dropwise with continuous stirring. After standing for 30 minutes, the extract was centrifuged. The supernatant solution was fractionated with solid ammonium sulfate. […] This DEAE-cellulose eluate was concentrated by ammonium sulfate fractionation. Material precipitating between 30 and 50% ammonium sulfate saturation was collected by centrifugation and dialyzed overnight against A. This fraction was further washed and filtered through an Amicon unit with XM 50 membrane. The concentrated fraction (6 ml) inside the Amicon unit was applied to an Affi-Gel Blue column (0.8 cm ×18 cm) which had been equilibrated with buffer A for affinity chromatography. The column was washed overnight with buffer A (0.18 ml./min.) and then was eluted with buffer A containing 5 mM NAD. Each 1 ml. fraction was collected.
(§4) The purified secondary alcohol dehydrogenase enzyme (SADH) may be used directly for converting C3 -C6 secondary alcohols to the corresponding methyl ketones by the procedures described above; however, a source of NAD^+ must be added to the reaction medium. One can determine the NAD-linked secondary alcohol dehydrogenase activity with a fluorescence spectrophotometer (Perkin Elmer, Model MPF 44A) by following the formation of reduced NAD (Ex 340 nm, Em 460 nm). The assay system (3 ml.) will typically contain: sodium phosphate buffer pH 7.0, 150 μmol; NAD 1.0 μmol; a given amount of enzyme preparation; and 20 μmol secondary alcohol. The reaction is started by the addition of secondary alcohol. One unit of SADH enzyme activity represents the reduction of one nmole NAD per minute.

[4] = tested on: secondary alcohol dehydrogenase (SADH); test: Inhibition of purified secondary alcohol dehydrogenase (SADH); format: biochemical, Pseudomonas sp. ATCC 21439
Description: as §3, §4
The effect of metal-chelating agents and thioreagents on the activity of the purified SADH enzyme were studied. […] The possibility of ethanol or n-propanol as an inhibitor was studied.

[5] = tested on: P(40) fraction of Methylosinus sp. (CRL-15, NRRL B-11,202); test: Effect of inhibitors on propylene epoxidation and methane hydroxylation by P(40) fraction (Table XI); format: biochemical; conditions: inhibitor 10^-3 M
Description: The oxidation of methane and propylene by particulate [(P)40 and (P)80] fractions and soluble [S(80)] fraction was measured at 30° C. by estimating the production of methanol and propylene oxide, respectively. The reaction mixtures contained in 1.0 ml: 150 mM potassium phosphate buffer, pH 7.0 containing 5 mM MgC2, 0.6 ml; 10 μmoles NADH, and cellular fraction.
Reaction mixtures were contained in 10 ml vials at 4° C. Vials were sealed with rubber caps. The gaseous phase in the vials was removed using vacuum and then was replaced with a gas mixture of methane or propylene and oxygen at a 1:1, v/v ratio. Oxidation of other gaseous n-alkanes and n-alkenes was examined as described above. For liquid substrates, 10 μ of substrate was used directly. Vials were then incubated at 30° C. on a rotary shaker at 200 RPM.
The products of epoxidation of n-alkenes and hydroxylation of n-alkanes were assayed by flame ionization gas chromatography using a stainless steel column (12'×1/8") packed with 10% Carbowax 20M on 80/100 Chromosorb W and Porapak Q column. The column temperature was maintained isothermally at 120° C. The carrier gas flow rate was 30 ml/min. of helium. The various products were identified by retention time comparisons and co-chromatography with authentic standards.
It has been reported that the oxidation of methane by cell suspensions of methane-utilizing bacteria was inhibited by various metal-binding or metal-chelating agents (Patel et al., J. Bacteriol. 126: 1017-1019 (1976)). […] (CRL-15, NRRL B-11,202) was examined.

[6] = tested on: cell-free particulate fractions derived from the methylotrophic microorganisms; test: Inhibition of conversion of C3-C6 n-alkanes to sec. alcohols by cell-free particulate fractions; format: biochemical; conditions: oxygen and NADH
Description: The conditions for preparing the cell suspensions or the cell-free particulate fractions from methane-grown methylotroph microorganisms is the same as described above.

[7] = tested on: purified secondary alcohol dehydrogenase; test: Inhibition of purified yeast secondary alcohol dehydrogenase; format: biochemical, Pichia sp. NRRL Y-11,328; conditions: purified yeast enzyme
Description: as §1, §2
Various primary alcohols not oxidized by secondary alcohol dehydrogenase were tested as potential inhibitors of enzyme activity.

[8] = inhibitor 1 mM, measured spectrofluorometrically

## CC(O)CO (stereo not shown) [1,2-propandiol]
[1]
  Oxidation by the purified yeast enzyme (in words): not oxidized

## CCCCCC(C)O (stereo not shown) [2-heptanol]
[2]
  Rate of oxidation of secondary alcohols to methyl ketones: much slower rate
[1]
  Oxidation by the purified yeast enzyme (in words): not oxidized

## CCCCC(C)O (stereo not shown) [2-hexanol]
[3]
  Oxidation by purified SADH (in words): oxidized at a lower rate
[2]
  Rate of oxidation of secondary alcohols to methyl ketones: much slower rate
[1]
  Oxidation by the purified yeast enzyme (in words): catalyzed the oxidation

## CCCCCCC(C)O (stereo not shown) [2-octanol]
[1]
  Oxidation by the purified yeast enzyme (in words): not oxidized

## CCCC(C)O (stereo not shown) [2-pentanol]
[3]
  Oxidation by purified SADH (in words): oxidized at a lower rate
[2]
  Rate of oxidation of secondary alcohols to methyl ketones: much slower rate
[1]
  Oxidation by the purified yeast enzyme (in words): catalyzed the oxidation

## O=C(O)c1cc(SSc2ccc([N+](=O)[O-])c(C(=O)O)c2)ccc1[N+](=O)[O-] [5,5'-dithiobis(2-nitrobenzoic acid)]
[4]; [8]
  % inhibition of SADH activity: 100%

## Oc1cccc2cccnc12 [8-Hydroxyquinoline]
[5]
  % inhibition of methane-hydroxylating activity: 80%
  % inhibition of propylene-epoxidizing activity: 75%
[6]
  Inhibition of conversion of C3-C6 n-alkanes to sec. alcohols (in words): inhibited

## [Co+2] [Co^++]
[4]; [8]
  % inhibition of SADH activity: 0%

## O=S(=O)([O-])[O-].[Cu+2] [Cupric Sulfate]
[7]
  Inhibition of secondary alcohol dehydrogenase activity (in words): inhibited

## c1c[nH]cn1 [Imidazole]
[7]
  Inhibition of secondary alcohol dehydrogenase activity (in words): strongly inhibited

## [Mg+2] [Mg^++]
[4]; [8]
  % inhibition of SADH activity: 0%

## [Mn+2] [Mn^++]
[4]; [8]
  % inhibition of SADH activity: 0%

## CCN1C(=O)C=CC1=O [N-ethylmalemide]
[4]; [8]
  % inhibition of SADH activity: 6%

## [N-]=[N+]=[N-] [Sodium azide]
[4]; [8]
  % inhibition of SADH activity: 10%

## NNC(N)=S [Thiosemicarbazide]
[5]
  % inhibition of methane-hydroxylating activity: 100%
  % inhibition of propylene-epoxidizing activity: 97%
[6]
  Inhibition of conversion of C3-C6 n-alkanes to sec. alcohols (in words): inhibited

## NC(N)=S [Thiourea]
[5]
  % inhibition of methane-hydroxylating activity: 98%
  % inhibition of propylene-epoxidizing activity: 98%
[4]; [8]
  % inhibition of SADH activity: 0%
[2]; cell suspensions of the strains tested
  Inhibition of production of 2-butanone from 2-butanol: not inhibited
[6]
  Inhibition of conversion of C3-C6 n-alkanes to sec. alcohols (in words): inhibited

## [Zn+2] [Zn^++]
[4]; [8]
  % inhibition of SADH activity: 0%

## CC=O [acetaldehyde]
[3]
  Oxidation by purified SADH (in words): oxidized at a lower rate

## O=Cc1ccccc1 [benzaldehyde]
[3]
  Oxidation by purified SADH (in words): not oxidized

## CCCCO [butan-1-ol]
[1]
  Oxidation by the purified yeast enzyme (in words): not oxidized

## CCC(O)CO (stereo not shown) [butane 1,2-diol]
[3]
  Oxidation by purified SADH (in words): not oxidized
[1]
  Oxidation by the purified yeast enzyme (in words): not oxidized

## CC(O)CCO (stereo not shown) [butane 1,3-diol]
[3]
  Oxidation by purified SADH (in words): oxidized at a lower rate
[1]
  Oxidation by the purified yeast enzyme (in words): not oxidized

## CC(O)C(C)O (stereo not shown) [butane 2,3-diol]
[3]
  Oxidation by purified SADH (in words): oxidized at a lower rate

## [Cu+2] [cupric]
[4]; [8]
  % inhibition of SADH activity: 25%

## OC1CCCCC1 [cyclohexanol]
[3]
  Oxidation by purified SADH (in words): oxidized at a lower rate

## CCO [ethanol]
[1]
  Oxidation by the purified yeast enzyme (in words): not oxidized

## [Fe+3] [ferric]
[4]; [8]
  % inhibition of SADH activity: 35%

## [Fe+2] [ferrous]
[4]; [8]
  % inhibition of SADH activity: 50%

## C=O [formaldehyde]
[3]
  Oxidation by purified SADH (in words): not oxidized

## O=C(O)CI [iodoacetic acid]
[4]
  % inhibition of SADH activity: 0%

## CC(C)CO [isobutanol]
[3]
  Oxidation by purified SADH (in words): not oxidized

## N#C[S][Hg][S]C#N [mercuric thiocyanate]
[7]
  Inhibition of secondary alcohol dehydrogenase activity (in words): inhibited

## CO [methanol]
[1]
  Oxidation by the purified yeast enzyme (in words): not oxidized

## CCCO [n-propanol]
[1]
  Oxidation by the purified yeast enzyme (in words): not oxidized

## [Ni+2] [nickel]
[4]; [8]
  % inhibition of SADH activity: 20%

## O=C(O)c1cc[c]([Hg+])cc1.[OH-] [p-hydroxymercuribenzoate]
[4]; [8]
  % inhibition of SADH activity: 100%
[7]
  Inhibition of secondary alcohol dehydrogenase activity (in words): strongly inhibited

## CCCCCO [pentan-1-ol]
[1]
  Oxidation by the purified yeast enzyme (in words): not oxidized

## Oc1ccccc1 [phenol]
[3]
  Oxidation by purified SADH (in words): not oxidized

## CCC=O [propanal]
[3]
  Oxidation by purified SADH (in words): oxidized at a lower rate

## O=[N+]([O-])[O-].[Ag+] [silver nitrate]
[7]
  Inhibition of secondary alcohol dehydrogenase activity (in words): inhibited

## O=C(O)CCC(=O)O [succinic acid]
[3]
  Oxidation by purified SADH (in words): not oxidized

## cytochrome c: cytochrome c tested as electron carrier [reference compound]
[1]; purified enzyme
  Function as electron acceptor/carrier for the purified yeast enzyme: could not act as electron carrier

— US4269940A, “Microbiological alkane oxidation process” (priority 1979, dated 1981)
